Experimental data published in patent US12138263B2, “Pyrazolo[3,4-b]pyrazine SHP2 phosphatase inhibitors and methods of use thereof” (Relay Therapeutics, Inc., priority 2018, dated 2024).
pIC50: −log10 of the molar value.

Molecular target: SHP2 (Homo sapiens (Human), UniProt Q06124)
Assay: SHP2 allosteric inhibition assay (DiFMUP prompt fluorescence)
Format: biochemical
Conditions: Table 3; 0.25 nM SHP2 with 0.5 μM peptide IRS1_pY1172(dPEG8)pY1222, substrate DiFMUP 100 μM

Chain of SHP2 (Q06124 whole entry): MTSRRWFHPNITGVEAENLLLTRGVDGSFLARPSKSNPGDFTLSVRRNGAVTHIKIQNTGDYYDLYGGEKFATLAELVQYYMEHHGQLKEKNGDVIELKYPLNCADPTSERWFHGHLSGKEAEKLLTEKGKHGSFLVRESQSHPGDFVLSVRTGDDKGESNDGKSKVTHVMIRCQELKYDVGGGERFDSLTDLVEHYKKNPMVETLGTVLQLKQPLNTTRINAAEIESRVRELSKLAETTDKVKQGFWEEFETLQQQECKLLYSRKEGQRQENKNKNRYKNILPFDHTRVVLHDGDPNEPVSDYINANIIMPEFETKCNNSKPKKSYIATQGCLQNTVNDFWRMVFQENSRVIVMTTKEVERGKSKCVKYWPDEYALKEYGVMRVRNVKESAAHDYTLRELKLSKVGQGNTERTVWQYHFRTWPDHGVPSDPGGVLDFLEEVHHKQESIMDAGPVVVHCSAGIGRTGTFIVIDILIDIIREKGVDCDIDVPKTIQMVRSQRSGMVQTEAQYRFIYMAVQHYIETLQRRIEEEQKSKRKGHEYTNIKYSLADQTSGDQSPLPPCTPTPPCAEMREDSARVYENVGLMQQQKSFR

## C[C@@H]1OCC2(CCN(c3nc4[nH]nc(N5CCCc6nc(-c7ccn[nH]7)ccc65)c4nc3CO)CC2)[C@@H]1N [Compound 20C, (3-(6-(1H-pyrazol-5-yl)-3,4-dihydro-1,5-naphthyridin-1(2H)-yl)-6-((3S,4S)-4-amino-3-methyl-2-oxa-8-azaspiro[4.5]decan-8-yl)-1H-pyrazolo[3,4-b]pyrazin-5-yl)methanol]
  pIC50: > 6.00

## COC1CC(N2CCN(c3n[nH]c4nc(N5CCC6(CC5)CO[C@@H](C)[C@H]6N)c(CO)nc34)c3ccc(C#N)cc32)C1 (some centres unmarked) [Compound 21C]
  pIC50: > 6.00

## C[C@@H]1OCC2(CCN(c3nc4[nH]nc(-c5cccc6ncccc56)c4nc3CO)CC2)[C@@H]1N [Compound 22C, (6-((3S,4S)-4-amino-3-methyl-2-oxa-8-azaspiro[4.5]decan-8-yl)-3-(quinolin-5-yl)-1H-pyrazolo[3,4-b]pyrazin-5-yl)methanol]
  pIC50: > 6.00

## CC(=O)N1CCN(c2n[nH]c3nc(N4CCC5(CC4)CO[C@@H](C)[C@H]5N)c(CO)nc23)c2ccccc21 [Compound 23C]
  pIC50: > 6.00

## C[C@@H]1OCC2(CCN(c3nc4[nH]nc(-c5ccc6occc6c5)c4nc3CO)CC2)[C@@H]1N [Compound 24C]
  pIC50: > 6.00
